According to patent US11905263B1, “4-nitro-N′-(2-(5-phenyl-1,3,4-oxadiazol-2-ylthio)acetoxy)benzimidamide as an antimicrobial compound” (KING FAISAL UNIVERSITY, priority 2023, dated 2024):

Columns and labels:
Type in all cases: cell-based
Bacillus cereus = assay: Agar plate disc-diffusion, antibacterial, inhibition zone; conditions: Gram positive
Protocol: (§1) The agar plate disc-diffusion method was applied. […] The discs were then placed onto the surface of agar plates (nutrient agar for bacteria and Sabouraud's dextrose agar for fungi) seeded with the test organism. Each plate contained 15 mL of the agar medium, previously seeded with 0.2 mL of the broth culture of each organism pregrown for 18 hours. The plates were incubated at 37° C. for 48 hours, and 72 hours for fungi. The inhibition zones was measured in mm. Discs impregnated with DMSO were used as a control, and its inhibition zone was subtracted from the tested compound actual inhibition zone.

Escherichia coli = assay: as above; conditions: Gram negative
Protocol: as §1

Pseudomonas aeruginosa = assay: as above; conditions: Gram negative
Protocol: as §1

Staphylococcus aureus = assay: as above; conditions: Gram positive
Protocol: as §1

Aspergillus flavus = assay: Agar plate disc-diffusion, antifungal, inhibition zone; conditions: fungal
Protocol: as §1

[1] = test system: Chrysosporium keratinophilum; assay: as above; conditions: fungal
Protocol: as §1

[2] = A = concentration of comp. = 10,000 μL
[3] = B = concentration of comp. = 30,000 μL
[4] = C = concentration of comp. = 50,000 μL

## N/C(=N\OC(=O)CSc1nnc(-c2ccccc2)o1)c1ccc([N+](=O)[O-])cc1 [Compound 3, 4-nitro-N′-(2-(5-phenyl-1,3,4-oxadiazol-2-ylthio)acetoxy)benzimidamide]
Bacillus cereus; [2]
  inhibition zone, Bacillus Cereus: 20 mm
Bacillus cereus; [3]
  inhibition zone, Bacillus Cereus: 25 mm
Bacillus cereus; [4]
  inhibition zone, Bacillus Cereus: 34 mm
Escherichia coli; [2]
  inhibition zone, Escherichia coli: 27 mm
Escherichia coli; [3]
  inhibition zone, Escherichia coli: 33 mm
Escherichia coli; [4]
  inhibition zone, Escherichia coli: 48 mm
Pseudomonas aeruginosa; [2]
  inhibition zone, Pseudomonas aeruginosa: 19 mm
Pseudomonas aeruginosa; [3]
  inhibition zone, Pseudomonas aeruginosa: 25 mm
Pseudomonas aeruginosa; [4]
  inhibition zone, Pseudomonas aeruginosa: 36 mm
Staphylococcus aureus; [2]
  inhibition zone, Staphylococcus aureus: 19 mm
Staphylococcus aureus; [3]
  inhibition zone, Staphylococcus aureus: 22 mm
Staphylococcus aureus; [4]
  inhibition zone, Staphylococcus aureus: 38 mm
Aspergillus flavus; [2]
  inhibition zone, Aspergillus flavus: 17 mm
Aspergillus flavus; [3]
  inhibition zone, Aspergillus flavus: 23 mm
Aspergillus flavus; [4]
  inhibition zone, Aspergillus flavus: 35 mm
[1]; [2]
  inhibition zone, Chrysosporium keratinophilum: 26 mm
[1]; [3]
  inhibition zone, Chrysosporium keratinophilum: 28 mm
[1]; [4]
  inhibition zone, Chrysosporium keratinophilum: 43 mm
